Like-named read-outs stand apart in the source and are kept apart here.
Columns and labels:
hCAII = hCAII (Homo sapiens (Human), UniProt P00918); experiment: Carbonic Anhydrase (Esterase) Biochemical Assay, hCAII
Experimental: (§1) 10-dose, 3-fold serial dilutions of compounds were prepared at starting concentrations of 10 mM in 100% DMSO. […] Final starting concentration in the assay was 50 μM. DMSO (no compound) and acetazolamide were included on each microplate as negative and positive controls, respectively.
(§2) Following a preincubation at room temperature for 15 minutes, 20 μl of a 4 mM solution of 4NPA substrate (Sigma cat #N8130) in assay buffer were added to start the reaction.

HSV-2 virus (MS strain) [1] = experiment: HSV-2 Cellomics Assay (immunofluorescence of HSV protein gD in infected ARPE-19 cells); details: Human alphaherpesvirus 2, ARPE-19, 16 h
Experimental: Compounds were tested for their ability to inhibit HSV-2 replication by monitoring the expression of the HSV protein gD using a high-throughput immunofluorescence-based assay. 10-dose, 3-fold serial dilutions of compounds were prepared at starting concentrations of 0.2 or 2 mM in 100% DMSO. […] The final starting concentration in the assay was either 1 or 10 μM. DMSO (no compound) and pritelivir were included on each microplate as negative and positive controls, respectively.
Prior to confluence, cells were transferred to a centrifuge tube and spun for 5 minutes at 1000 rpm. Cells were resuspended in assay medium (DMEM/F-12 Glutamax, 2% FBS, 1% Penicillin-Streptomycin) and counted. Cell density was adjusted to 150,000 cells/ml and infected with HSV-2 virus (MS strain, ATCC cat #VR-540) at a MOI of 0.06 in a 50 ml conical tube for 1 hour under constant rocking. Cells were then spun for 5 minutes at 1000 rpm and the media replaced with assay medium containing either 2% FBS or 10% human serum (EMD Millipore cat #S1-100 ML). 50 μl of the infection suspension were added into microplate wells that were pre-spotted with compounds (7,500 cells per well). Plates were incubated for 16 hours at 37° C.
After a 30-minute incubation at room temperature, plates were washed 4 times with 100 μl/well of PBS using a Biotek plate washer. […] Plates were washed 4 times again and 50 μl of DPBS were added to all wells prior to sealing the plates with a black adhesive seal. Fluorescence was measured on a Cellomics plate reader.
Data analysis was carried out using the Thermo Scientific HCS Studio software. Briefly, cells were identified using the DAPI nuclear stain and thresholds were set to filter cells out based on shape and size. A second threshold based on green fluorescence intensity (detection of HSV-2 gD) was set to identify HSV-2 infected cells. Data was reported as the average fluorescence intensity of HSV-2 infected cells.

HSV-2 virus (MS strain) [2] = experiment: HSV qPCR Assay (HSV replication in ARPE-19 cells); details: Human alphaherpesvirus 2, ARPE-19, read-out: EC50-HSV2-qPCR
Experimental: HSV replication in the presence or absence of compounds was measured by qPCR according to the following procedure: DMSO stock compound solutions (1-10 mM) were serially diluted (2.5-fold) in DMSO in clear round bottom 96-well plates. Compounds were then diluted 1:20 in assay medium (DMEM/F12 Glutamax+2% Fetal bovine serum+1% Penicillin Streptomycin) and 10 μL of these dilutions were added to 96-well tissue culture plates for final starting concentrations between 0.5 and 5 μM.
Cells were resuspended in assay medium, counted, and cell density was adjusted to 2.8E+05 cells/ml with assay medium. […] 90 μL of the infection suspension (25,000 cells) were added to assay plates in which compounds were already added. After an overnight incubation at 37° C., cell culture medium was removed, and cell lysis was performed using the prepGEM Universal kit (MicroGEM cat #PUN1000). Specifically, 100 μL of prepGEM master mix (94.75 μL Water, 5 μL buffer, 0.25 μL enzyme stock) were added to each well and plates were incubated at room temperature for 15 minutes, with the 5 last minutes on a plate shaker. The cell lysates were then transferred to a 96-well PCR compatible microplate (Applied Biosystems, Cat #N8010560). Plates were sealed with a heat resistant plastic sealer and heated on a thermal cycler using the following conditions: 75° C. for 10 min, 95° C. for 5 minutes. Finally, plates were cooled down to room temperature with light shaking before proceeding to the qPCR setup.
Plates were sealed with a clear sealer, spun down, and qPCR reactions were performed in an Applied Biosystems Quantstudio 7 Flex instrument using the following conditions: 95° C. for 2 minutes, then 40 cycles alternating between 95° C. for 5 seconds and 60° C. for 30 seconds.
Analysis was performed using dCT method where dCT=CT (test)−CT (DMSO). Fold change was calculated using the 2^^dCT equation. This fold change was then converted to percentage relative to DMSO control (no drug). EC50s were determined by non-linear regression analysis using GraphPad Prism software.

[3] = MT-4 CC50 Assay (CellTiter Glo); type: cell-based; details: human, MT-4 cells, luminescence, read-out: CC50-MT4
Experimental: Compounds were tested in 384-well plates: 18 compounds in duplex. Compounds were diluted in 7 points, 3-fold with DMSO by Bravo. Assay plate, which contains 20 uL medium with compounds, was seeded 2000 MT-4 cells in 20 uL/well by Multi-drop to start the assay. The plate was incubated at 37° C. for 5 days. On 6th day, the CellTiter Glo 40 uL was added in each well. Luminescence was read by Victor II.

[4] = test system: human cryopreserved hepatocytes; experiment: Stability Assay in Cryopreserved Hepatocytes (human); type: in vitro ADME; details: 1 μM, calculated from half-life using the well-stirred model
Experimental: Test compound was incubated at 1 μM with either rat or human cryopreserved hepatocytes (BioIVT, Westbury, NY) up to 6 hours at 37° C. in a 24-well plate format (1×10^6 cells/mL per well). At specified time points, samples were transferred to a 96-well plate and quenched with 2 volumes of a solution containing 90% acetonitrile 10% methanol 0.1% formic acid and internal standard. Sample plate was centrifuged at 3200 rpm for 15 min and supernatants transferred to a new plate containing half volume of water. The resulting solution was analyzed by LC-MS/MS. Data (analyte to internal standard peak area ratio) was plotted on a semi-log scale and fitted using an exponential fit. Assuming first order kinetics, the half-life (t1/2) and rate of metabolism were determined. Predicted hepatic clearance was calculated from the half-life using the well-stirred model.

hCAI = hCAI (Homo sapiens (Human), UniProt P00915); experiment: Carbonic Anhydrase (Esterase) Biochemical Assay, hCAI
Sequence of hCAI (P00915 whole entry): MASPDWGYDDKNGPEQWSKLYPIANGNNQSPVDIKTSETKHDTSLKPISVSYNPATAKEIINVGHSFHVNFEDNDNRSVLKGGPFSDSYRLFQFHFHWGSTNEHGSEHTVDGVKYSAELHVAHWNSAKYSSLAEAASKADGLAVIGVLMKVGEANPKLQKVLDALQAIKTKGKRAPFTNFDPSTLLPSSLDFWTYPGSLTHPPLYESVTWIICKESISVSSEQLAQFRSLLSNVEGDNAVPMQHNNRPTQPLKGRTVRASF
Experimental: as §1, §2

[5] = read-out: IC50-hCAII, 4-nitrophenyl acetate hydrolysis, 60 min
[6] = read-out: EC50-HSV2-10% Human Serum
[7] = read-out: IC50-hCAI, 4-nitrophenyl acetate hydrolysis, 60 min

Compound | IC50 (hCAII; [5]) [µM] | EC50 (HSV-2 virus (MS strain) [1]; [6]) [µM] | EC50 (HSV-2 virus (MS strain) [1]; read-out: EC50-HSV2-FBS) [µM] | EC50 (HSV-2 virus (MS strain) [2]) [µM] | CC50 at 5 days [3] [µM] | Predicted human hepatic clearance [4] [mL/min/kg] | IC50 (hCAII) [µM] | IC50 (hCAI) [µM] | IC50 (hCAI; [7]) [µM]
NS(=O)(=O)c1cc2c(cc1Cl)CCN2C(=O)C1Cc2ccc(-c3ccccn3)cc2C1 (stereo not drawn) [Example 5] | ≥ 25 | ≥ 25 | 0.035 | 0.0109 | – | – | – | – | –
C[C@@H]1Cc2ccc(S(N)(=O)=O)cc2N1C(=O)[C@@H]1Cc2ccc(-c3ccccn3)cc2C1 [Example 15] | – | 0.276 | 0.028 | 0.0049 | ≥ 50 | 0.933 | – | – | –
C[C@@H]1Cc2cc(F)c(S(N)(=O)=O)cc2N1C(=O)[C@@H]1Cc2ccc(-c3ccccn3)cc2C1 [Example 35] | – | 0.0575 | 0.007 | 0.0011 | 24 | 0.917 | – | – | –
C[C@@H]1Cc2cc(F)c(S(N)(=O)=O)cc2N1C(=O)[C@H]1Cc2cc(-c3ccccn3)ccc2O1 [Example 44] | – | 0.326 | 0.014 | 0.001 | ≥ 10 | 0.83 | – | – | –
NS(=O)(=O)c1cc2c(cc1F)CCN2C(=O)[C@@H]1Cc2ccc(-c3ccccn3)cc2O1 [Example 65, (S)-5-fluoro-1-(6-(pyridin-2-yl)-2,3-dihydrobenzofuran-2-carbonyl)indoline-6-sulfonamide] | – | 0.147 | 0.016 | 0.0014 | ≥ 10 | 0.83 | – | – | –
NS(=O)(=O)c1ccc2c(c1)N(C(=O)C1Cc3ccc(-c4nccnc4F)cc3C1)CC2 (stereo not drawn) [Example 73] | ≥ 25 | 6.04 | 0.129 | 0.0175 | – | – | – | – | –
NS(=O)(=O)c1ccc2c(c1)N(C(=O)C1Cc3ccc(-c4cnccn4)cc3C1)CC2 (stereo not drawn) [Example 74] | ≥ 25 | 11.8 | 0.059 | 0.0083 | – | – | – | – | –
NS(=O)(=O)c1ccc2c(c1)N(C(=O)C1Cc3ccc(-c4cccc(F)n4)cc3C1)CC2 (stereo not drawn) [Example 75] | ≥ 25 | – | 0.032 | 0.0143 | – | – | – | – | –
NS(=O)(=O)c1ccc2c(c1)N(C(=O)C1Cc3ccc(-c4ncccc4F)cc3C1)CC2 (stereo not drawn) [Example 76] | ≥ 25 | – | 0.107 | 0.022 | 2.5 | – | – | – | –
NS(=O)(=O)c1ccc2c(c1)N(C(=O)[C@@H]1Cc3ccc(-c4ccccn4)cc3C1)CC2 [Example 81, (R)-1-(5-(pyridin-2-yl)-2,3-dihydro-1H-indene-2-carbonyl)indoline-6-sulfonamide] | ≥ 25 | ≥ 25 | 0.02 | 0.0019 | ≥ 50 | 2.33 | – | – | –
NS(=O)(=O)c1ccc2c(c1)N(C(=O)[C@@H]1Cc3ccc(-c4ncccc4F)cc3C1)CC2 [Example 89, (R)-1-(5-(3-fluoropyridin-2-yl)-2,3-dihydro-1H-indene-2-carbonyl)indoline-6-sulfonamide] | – | 1.96 | 0.023 | – | 0.308 | 0.83 | – | – | –
C[C@H]1c2ccc(-c3ccccn3)cc2C[C@@H]1C(=O)N1CCc2ccc(S(N)(=O)=O)cc21 [Example 94, 1-((1R,2S)-1-methyl-5-(pyridin-2-yl)-2,3-dihydro-1H-indene-2-carbonyl)indoline-6-sulfonamide] | ≥ 50 | 0.195 | 0.049 | 0.0039 | ≥ 50 | – | – | – | –
C[C@H]1c2ccc(-c3ccccn3)cc2C[C@@H]1C(=O)N1CCc2cc(F)c(S(N)(=O)=O)cc21 [Example 97, 5-fluoro-1-((1R,2S)-1-methyl-5-(pyridin-2-yl)-2,3-dihydro-1H-indene-2-carbonyl)indoline-6-sulfonamide] | – | 0.056 | 0.014 | 0.0013 | ≥ 50 | – | ≥ 50 | ≥ 50 | –
NS(=O)(=O)c1cc2c(cc1F)C[C@@H](CF)N2C(=O)[C@@H]1Cc2ccc(-c3ccccn3)cc2C1 [Example 125, (S)-5-fluoro-2-(fluoromethyl)-1-((R)-5-(pyridin-2-yl)-2,3-dihydro-1H-indene-2-carbonyl)indoline-6-sulfonamide] | – | 0.0702 | 0.0111 | 0.00056 | – | 1.03 | – | – | –
NS(=O)(=O)c1cc2c(cc1F)C[C@H](CF)N2C(=O)[C@@H]1Cc2ccc(-c3ccccn3)cc2C1 [Example 126, (R)-5-fluoro-2-(fluoromethyl)-1-((R)-5-(pyridin-2-yl)-2,3-dihydro-1H-indene-2-carbonyl)indoline-6-sulfonamide] | – | ≥ 10 | ≥ 1 | 0.0567 | – | 2.67 | – | – | –
NS(=O)(=O)c1cc2c(cc1F)C[C@H](C(F)F)N2C(=O)[C@@H]1Cc2ccc(-c3ccccn3)cc2C1 [Example 127, (R)-2-(difluoromethyl)-5-fluoro-1-((R)-5-(pyridin-2-yl)-2,3-dihydro-1H-indene-2-carbonyl)indoline-6-sulfonamide] | 2.46 | 5.45 | 0.553 | 0.0583 | – | 5.67 | – | – | 4.19
NS(=O)(=O)c1cc2c(cc1F)C[C@@H](C(F)F)N2C(=O)[C@@H]1Cc2ccc(-c3ccccn3)cc2C1 [Example 128, (S)-2-(difluoromethyl)-5-fluoro-1-((R)-5-(pyridin-2-yl)-2,3-dihydro-1H-indene-2-carbonyl)indoline-6-sulfonamide] | 7.42 | 0.0629 | 0.0083 | 0.0014 | – | 3.5 | – | – | ≥ 50
C[C@H]1c2ccc(-c3ccccn3)cc2C[C@@H]1C(=O)N1C[C@@H](C(F)(F)F)c2cc(F)c(S(N)(=O)=O)cc21 [Example 138, (S)-5-fluoro-1-((1R,2S)-1-methyl-5-(pyridin-2-yl)-2,3-dihydro-1H-indene-2-carbonyl)-3-(trifluoromethyl)indoline-6-sulfonamide] | – | 0.184 | 0.0234 | 0.002 | – | 1 | – | – | –

Source: patent US12522582B2 (Gilead Sciences, Inc., priority 2022, dated 2026)
